Four molecules from article PMC6514978, “Synthesis, Antibacterial Activities, Mode of Action and Acute Toxicity Studies of New Oxazolidinone-Fluoroquinolone Hybrids” (Molecules, 2019) can be followed below.

The subject of assay [1] is P. Aeruginosa (ATCC27853). Briefly: MIC, broth microdilution (CLSI), standard strain. The conditions noted are these: Pseudomonas aeruginosa; P. Aeruginosa (ATCC27853); read-out: MIC. It counts as cell-based. From the text:
(§1) 6 standard strains and 3 clinical isolates were used to the preliminary evaluation of in vitro antibacterial activities of oxazolidinone-fluoroquinolone hybrids. For the further evaluation of hybrids OBP-4 and OBP-5, 263 clinical isolates including S. aureus (46), S. haemolyticus(32), S. epidermidis (10), E. faecalis (72), E. faecium (47), S. pneumoniae (13), H. parasuis (34), S. suis (9), and 8 resistant strains including MRSA, MRSE, CIP-resistant S. aureus and S. haemolyticus, VAN and quinolone-resistant S. pneumoniae, LZD-resistant E. faecalis, LZD/VAN and quinolone-resistant E. faecium were collected and tested.
(§2) Susceptibility testing of oxazolidinone-fluoroquinolone hybrids against various bacteria was performed by the broth microdilution method as outlined by the Clinical and Laboratory Standards Institute (CLSI). Three types of media, including cation-adjusted Mueller Hinton broth, Haemophilus Test Medium and cation-adjusted Mueller Hinton broth that contained 3%–5% lysed horse blood, were used to culture the corresponding bacteria. All compounds including comparator drugs were dissolved in an appropriate solvent at a concentration of 2.048 mg/mL and then serially diluted two-fold to provide the required concentrations. A final inoculum of 5 × 10^5 CFU/mL was used and plates were read after incubation for 16–24 h at 35 °C. […] Standard quality control strains (ATCC) were included throughout. Each determination was repeated in triplicate.

For assay [2], the system named is S. pneumoniae (ATCC49619). In words: MIC, broth microdilution (CLSI), standard strain. The format is cell-based. The conditions noted are these: Streptococcus pneumoniae.
Excerpt: as §1, §2
A general note: Dilution methods test growth across graded concentrations, often in twofold steps.

The next assay has as its system E. coli (ATCC25922). Briefly: MIC, broth microdilution (CLSI), standard strain. The conditions noted are these: Escherichia coli; E. coli (ATCC25922); read-out: MIC. It counts as cell-based.
Excerpt: as §1, §2

A further assay deals with E. faecalis (ATCC29212). In words: MIC, broth microdilution (CLSI), standard strain. It counts as cell-based. As to conditions: Enterococcus faecalis.
Excerpt: as §1, §2

Assay [3] deals with H. influenzae (ATCC49247). Briefly: MIC, broth microdilution (CLSI), standard strain. As to conditions: Haemophilus influenzae. It counts as cell-based.
Excerpt: as §1, §2

In the next assay the test system is S. aureus (ATCC29213). Briefly: MIC, broth microdilution (CLSI), standard strain. The format is cell-based. The conditions noted are these: Staphylococcus aureus.
Excerpt: as §1, §2

Assay [4] deals with S. agalactiae^R (13B317), levofloxacin-resistant S. agalactiae. Briefly: MIC, broth microdilution (CLSI), clinical isolate. It counts as cell-based. The conditions noted are these: Streptococcus agalactiae; levofloxacin-resistant S. agalactiae (13B317).
Excerpt: as §1, §2

In a further assay the test system is MRSA (13B262). Briefly: MIC, broth microdilution (CLSI), clinical isolate. The format is cell-based. As to conditions: Staphylococcus aureus.
Excerpt: as §1, §2

For a further assay, the system named is VRE (13B330). Briefly: MIC, broth microdilution (CLSI), clinical isolate. It counts as cell-based, vancomycin-resistant enterococcus. The conditions noted are these: Enterococcus.
Excerpt: as §1, §2

Where [5] appears, read: E. faecalis (ATCC29212), read-out: MIC.

Values after ≈ are worked out from the molar mass of the structure shown. Like-named read-outs stand apart in the source and are kept apart here.

Take `C[C@H]1COc2c(N3CCC(O)(COc4ccc(N5C[C@H](CO)OC5=O)cc4F)CC3)c(F)cc3c(=O)c(C(=O)O)cn1c23` [OBP-2]: the MIC in assay [1] turned out to be 64 µg/mL (≈ 106 µM); in assay [2], 0.25 µg/mL (≈ 0.416 µM); in the assay on E. coli (ATCC25922), 4 µg/mL (≈ 6.65 µM); with E. faecalis (ATCC29212) (setting [5]), 1 µg/mL (≈ 1.66 µM); in assay [3] it was 0.5 µg/mL (≈ 0.831 µM); in the assay on S. aureus (ATCC29213), 0.25 µg/mL (≈ 0.416 µM). Besides, the figures for the MIC (in assay [4]; with MRSA (13B262); in the assay on VRE (13B330)) were 0.25 µg/mL (≈ 0.416 µM), 1 µg/mL (≈ 1.66 µM) and 1 µg/mL (≈ 1.66 µM), respectively.

In the case of `O=C(O)c1cn(C2CC2)c2cc(N3CC4C(C3)C4Nc3ccc(N4C[C@H](CO)OC4=O)cc3F)c(F)cc2c1=O` (stereo partly drawn) [OBP-7], the MIC was 64 µg/mL (≈ 116 µM) in [1]; 2 µg/mL (≈ 3.62 µM) in assay [2]; 0.5 µg/mL (≈ 0.905 µM) in the assay with E. coli (ATCC25922); 1 µg/mL (≈ 1.81 µM) with E. faecalis (ATCC29212) (setting [5]); 0.031 µg/mL (≈ 0.0561 µM) in assay [3]; 0.25 µg/mL (≈ 0.452 µM) against S. aureus (ATCC29213). Moreover, the MIC worked out at 4 µg/mL (≈ 7.24 µM) in [4], 128 µg/mL (≈ 232 µM) against MRSA (13B262) and 128 µg/mL (≈ 232 µM) against VRE (13B330).

For `COc1c(N2C[C@@H]3CCCN[C@@H]3C2)c(F)cc2c(=O)c(C(=O)O)cn(C3CC3)c12` [MXF, moxifloxacin, reference compound], the MIC is 4 µg/mL (≈ 9.96 µM) in assay [1]; 0.062 µg/mL (≈ 0.154 µM) in assay [2]; 0.016 µg/mL (≈ 0.0399 µM) in the assay on E. coli (ATCC25922); 0.125 µg/mL (≈ 0.311 µM) in the assay on E. faecalis (ATCC29212) (ATCC29212); 0.008 µg/mL (≈ 0.0199 µM) in assay [3]; 0.031 µg/mL (≈ 0.0772 µM) against S. aureus (ATCC29213). The MIC turned out to be 4 µg/mL (≈ 9.96 µM) in assay [4], 8 µg/mL (≈ 19.9 µM) against MRSA (13B262) and 64 µg/mL (≈ 159 µM) with VRE (13B330).

Turning to `CN1COc2c(N3CCC(O)(COc4ccc(N5C[C@H](CO)OC5=O)cc4F)CC3)c(F)cc3c(=O)c(C(=O)O)cn1c23` [OBP-1], the MIC in [1] came out at 64 µg/mL (≈ 106 µM); in [2], 0.25 µg/mL (≈ 0.415 µM); in the assay on E. coli (ATCC25922), 4 µg/mL (≈ 6.64 µM); in the assay with E. faecalis (ATCC29212) (setting [5]), 1 µg/mL (≈ 1.66 µM); in assay [3] it was 1 µg/mL (≈ 1.66 µM); in the assay on S. aureus (ATCC29213), 1 µg/mL (≈ 1.66 µM). The MIC in [4] stood at 0.5 µg/mL (≈ 0.83 µM); against MRSA (13B262), 2 µg/mL (≈ 3.32 µM); against VRE (13B330) it was 1 µg/mL (≈ 1.66 µM).
